# Measured values taken from paper PMC4076017 (ACS Chemical Biology, 2014).
# Where “and” joins values, the source holds several entries; their conditions need not be identical. Equal entries are not always repeated.
# Assays:
# Antimicrobial activity = type: cell-based
# BaDHPS [1] = molecular target: T1, BaDHPS (Bacillus anthracis, UniProt Q81VW8); assay: biochemical; type: binding
# Aqueous solubility = type: physicochemical
# [2] = LC-MS stability in conditions that recapitulate the crystallization conditions; type: physicochemical; settings: conditions that recapitulate the crystallization conditions (pH and time)
# BaDHPS [3] = molecular target: T1, BaDHPS; assay: biochemical
# YpDHPS [4] = molecular target: T2, YpDHPS (Yersinia pestis, UniProt A0A2S9PLG4); assay: biochemical
# T2 sequence (A0A2S9PLG4 1-277): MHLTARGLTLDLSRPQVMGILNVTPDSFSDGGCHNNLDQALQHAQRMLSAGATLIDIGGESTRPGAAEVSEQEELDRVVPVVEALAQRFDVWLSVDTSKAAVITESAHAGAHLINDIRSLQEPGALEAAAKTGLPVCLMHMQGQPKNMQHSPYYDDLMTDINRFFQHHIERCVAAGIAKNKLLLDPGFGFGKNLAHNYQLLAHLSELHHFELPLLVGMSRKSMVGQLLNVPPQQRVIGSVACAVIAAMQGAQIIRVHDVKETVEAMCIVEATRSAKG
# SaDHPS [5] = molecular target: T3, SaDHPS (Staphylococcus aureus, UniProt O05701); assay: DHPS enzyme inhibition assay; type: biochemical
# T3 sequence (O05701 whole entry): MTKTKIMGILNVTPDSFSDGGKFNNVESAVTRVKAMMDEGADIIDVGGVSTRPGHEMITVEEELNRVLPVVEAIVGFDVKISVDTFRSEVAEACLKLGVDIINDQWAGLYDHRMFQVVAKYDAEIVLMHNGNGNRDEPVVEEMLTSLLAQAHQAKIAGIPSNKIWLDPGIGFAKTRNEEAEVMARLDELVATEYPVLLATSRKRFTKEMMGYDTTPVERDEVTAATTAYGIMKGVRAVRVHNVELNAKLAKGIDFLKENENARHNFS
# BaDHPS [6] = molecular target: T1, BaDHPS; type: biochemical
# SaDHPS [7] = molecular target: T3, SaDHPS; assay: Michaelis-Menten kinetics in the presence of compound 11; type: biochemical; settings: pABA 0 to 10 μM
# YpDHPS [8] = molecular target: T2, YpDHPS; type: biochemical
# T1 sequence (Q81VW8 1-280): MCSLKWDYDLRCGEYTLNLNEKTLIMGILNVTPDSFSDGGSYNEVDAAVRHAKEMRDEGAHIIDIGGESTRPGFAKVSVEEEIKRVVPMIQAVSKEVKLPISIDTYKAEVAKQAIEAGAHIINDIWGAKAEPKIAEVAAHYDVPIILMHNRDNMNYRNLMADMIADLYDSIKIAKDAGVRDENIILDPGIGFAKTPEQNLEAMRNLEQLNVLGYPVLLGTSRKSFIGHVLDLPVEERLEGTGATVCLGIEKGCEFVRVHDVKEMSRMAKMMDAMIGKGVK
smiles,measurement,setting,value
"FC(F)(F)c1ccc(/C=N/Cc2ccc(C(F)(F)F)cc2)cc1 [Compound 11, (E)-N-(4-(Trifluoromethyl)benzylidene)-1-(4-(trifluoromethyl)phenyl) Methanamine]",antimicrobial activity,Antimicrobial activity,lacks antimicrobial activity
same,Kd,BaDHPS [1],130 ± 1 µM
same,increase in binding affinity of pABA to DHPS in the presence of 11,BaDHPS [1],2 fold
same,aqueous solubility,Aqueous solubility,limited aqueous solubility
same,stability by liquid chromatography-mass spectrometric analysis,[2],stable
same,IC50,BaDHPS [3],50 µM
same,inhibition at 250 µM,BaDHPS [3]; read-out: inhibition of BaDHPS,100%
same,IC50,YpDHPS [4],31 µM
same,inhibition at 250 µM,YpDHPS [4]; read-out: inhibition of YpDHPS,100%
same,IC50,SaDHPS [5],17 µM
same,inhibition at 250 µM,SaDHPS [5]; read-out: inhibition of SaDHPS,100%
same,Kmobs,BaDHPS [6],1.0 µM and 0.74 µM
same,Vmaxobs,BaDHPS [6],106.7 nM/min and 70.81 nM/min
same,Kmobs,"SaDHPS [7]; 50 μM compd 11, DHPP 20 μM",2.7 µM
same,Vmaxobs,"SaDHPS [7]; 50 μM compd 11, DHPP 20 μM",211.2 nM/min
same,Kmobs,"SaDHPS [7]; 100 μM compd 11, DHPP 20 μM",0.38 µM
same,Vmaxobs,"SaDHPS [7]; 100 μM compd 11, DHPP 20 μM",31.19 nM/min
same,Kmobs,YpDHPS [8],1.8 µM and 1.2 µM
